According to patent US10245261B2, “Substituted indol-5-ol derivatives and their therapeutic applications” (NantBioScience, Inc., priority 2013, dated 2019):

What was measured:
Assay in all cases: KinaseProfiler kinase assay
Format in all cases: biochemical
ALK4(h) = ALK4(h) (Homo sapiens, UniProt P36896)
How it was run: (§1)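 Using a filter-binding 33P format, reactions initiated by MgATP addition proceeded 40 min at room temperature before a 3% phosphoric acid stop. Filtermats were washed three times in 50 mM phosphoric acid and once in methanol, dried and counted.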

Blk(m) = Blk(m) (Mus musculus, UniProt P16277)
How it was run: as §1

CDK2/cyclinE(h) = CDK2/cyclinE(h) (Homo sapiens, UniProt P24941)
How it was run: as §1

CHK2(I157T)(h) = CHK2(I157T)(h) (Homo sapiens, UniProt O96017, I157T)
CHK2(I157T)(h), sequence (O96017 whole entry I157T): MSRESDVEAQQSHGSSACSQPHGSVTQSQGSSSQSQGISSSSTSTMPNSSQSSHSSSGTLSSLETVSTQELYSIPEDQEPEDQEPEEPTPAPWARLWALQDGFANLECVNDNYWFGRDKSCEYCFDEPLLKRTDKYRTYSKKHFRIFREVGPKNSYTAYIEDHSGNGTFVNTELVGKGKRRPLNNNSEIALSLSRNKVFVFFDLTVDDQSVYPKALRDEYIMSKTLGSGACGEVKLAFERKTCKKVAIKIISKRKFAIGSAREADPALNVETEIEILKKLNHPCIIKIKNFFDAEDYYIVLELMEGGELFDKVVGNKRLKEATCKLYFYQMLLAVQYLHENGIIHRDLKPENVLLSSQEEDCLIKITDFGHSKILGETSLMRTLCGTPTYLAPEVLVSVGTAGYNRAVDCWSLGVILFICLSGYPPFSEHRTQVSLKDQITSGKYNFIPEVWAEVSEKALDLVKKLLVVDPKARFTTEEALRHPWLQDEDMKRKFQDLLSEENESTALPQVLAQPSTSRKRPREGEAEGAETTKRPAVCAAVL
How it was run: as §1

CHK2(h) = CHK2(h) (Homo sapiens, UniProt O96017)
CHK2(h), sequence (O96017 whole entry): as the sequence (O96017 whole entry I157T) above, with T157I counted along it
How it was run: as §1

CSK(h) = CSK(h) (Homo sapiens, UniProt P41240)
How it was run: as §1

CaMKIδ(h) = CaMKIδ(h) (Homo sapiens, UniProt Q8IU85)
How it was run: as §1

EGFR(L861Q)(h) = EGFR(L861Q)(h) (Homo sapiens, UniProt P00533, L861Q)
How it was run: as §1

EGFR(h) = EGFR(h) (Homo sapiens, UniProt P00533)
How it was run: as §1

EphA5(h) = EphA5(h) (Homo sapiens, UniProt P54756)
How it was run: as §1

ErbB4(h) = ErbB4(h) (Homo sapiens, UniProt Q15303)
ErbB4(h), sequence (Q15303 26-1308): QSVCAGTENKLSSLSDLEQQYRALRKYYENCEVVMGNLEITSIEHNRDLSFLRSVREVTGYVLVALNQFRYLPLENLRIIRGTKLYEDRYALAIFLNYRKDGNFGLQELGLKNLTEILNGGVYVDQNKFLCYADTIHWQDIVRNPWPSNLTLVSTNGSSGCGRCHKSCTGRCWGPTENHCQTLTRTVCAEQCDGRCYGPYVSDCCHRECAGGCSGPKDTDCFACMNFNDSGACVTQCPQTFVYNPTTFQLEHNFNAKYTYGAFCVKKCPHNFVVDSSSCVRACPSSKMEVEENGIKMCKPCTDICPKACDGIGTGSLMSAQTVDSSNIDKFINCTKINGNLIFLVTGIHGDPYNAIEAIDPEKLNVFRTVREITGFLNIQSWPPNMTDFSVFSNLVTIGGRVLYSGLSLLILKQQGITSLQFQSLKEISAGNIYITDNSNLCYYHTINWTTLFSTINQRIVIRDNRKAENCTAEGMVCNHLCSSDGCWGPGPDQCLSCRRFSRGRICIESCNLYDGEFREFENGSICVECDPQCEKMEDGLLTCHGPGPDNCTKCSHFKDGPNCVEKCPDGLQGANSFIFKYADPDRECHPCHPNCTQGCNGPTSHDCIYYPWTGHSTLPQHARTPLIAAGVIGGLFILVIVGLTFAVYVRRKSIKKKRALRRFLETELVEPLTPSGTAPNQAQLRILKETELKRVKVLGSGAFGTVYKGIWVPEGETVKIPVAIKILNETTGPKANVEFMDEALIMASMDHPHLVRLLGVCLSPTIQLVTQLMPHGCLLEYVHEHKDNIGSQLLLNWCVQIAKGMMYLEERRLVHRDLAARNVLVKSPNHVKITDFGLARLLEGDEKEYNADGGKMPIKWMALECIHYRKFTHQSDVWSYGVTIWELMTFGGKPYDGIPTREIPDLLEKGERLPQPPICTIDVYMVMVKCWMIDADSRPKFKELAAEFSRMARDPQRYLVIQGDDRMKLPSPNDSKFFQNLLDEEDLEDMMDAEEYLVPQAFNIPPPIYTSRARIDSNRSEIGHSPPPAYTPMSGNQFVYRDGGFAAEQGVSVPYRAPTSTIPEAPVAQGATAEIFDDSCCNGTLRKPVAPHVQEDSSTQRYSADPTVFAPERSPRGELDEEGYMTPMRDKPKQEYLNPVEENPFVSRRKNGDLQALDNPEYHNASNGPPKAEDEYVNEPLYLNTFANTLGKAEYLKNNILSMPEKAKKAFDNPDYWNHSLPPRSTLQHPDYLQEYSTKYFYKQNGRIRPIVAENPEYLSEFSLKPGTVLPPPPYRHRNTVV
How it was run: as §1

JAK2(h) = JAK2(h) (Homo sapiens, UniProt O60674)
How it was run: as §1

LIMK1(h) = LIMK1(h) (Homo sapiens, UniProt P53667)
How it was run: as §1

MSK2(h) = MSK2(h) (Homo sapiens, UniProt O75676)
How it was run: as §1

MuSK(h) = MuSK(h) (Homo sapiens, UniProt O15146)
How it was run: as §1

NEK11(h) = NEK11(h) (Homo sapiens, UniProt Q8NG66)
How it was run: as §1

NEK6(h) = NEK6(h) (Homo sapiens, UniProt Q9HC98)
How it was run: as §1

PAK4(h) = PAK4(h) (Homo sapiens, UniProt O96013)
How it was run: as §1

PAR-1Bα(h) = PAR-1Bα(h) (Homo sapiens, UniProt Q7KZI7)
How it was run: as §1

[1] = target: PI3 Kinase (p110α/p65α)(m) (Mus musculus, UniProt P42337)
PI3 Kinase (p110α/p65α)(m), sequence (P42337 whole entry): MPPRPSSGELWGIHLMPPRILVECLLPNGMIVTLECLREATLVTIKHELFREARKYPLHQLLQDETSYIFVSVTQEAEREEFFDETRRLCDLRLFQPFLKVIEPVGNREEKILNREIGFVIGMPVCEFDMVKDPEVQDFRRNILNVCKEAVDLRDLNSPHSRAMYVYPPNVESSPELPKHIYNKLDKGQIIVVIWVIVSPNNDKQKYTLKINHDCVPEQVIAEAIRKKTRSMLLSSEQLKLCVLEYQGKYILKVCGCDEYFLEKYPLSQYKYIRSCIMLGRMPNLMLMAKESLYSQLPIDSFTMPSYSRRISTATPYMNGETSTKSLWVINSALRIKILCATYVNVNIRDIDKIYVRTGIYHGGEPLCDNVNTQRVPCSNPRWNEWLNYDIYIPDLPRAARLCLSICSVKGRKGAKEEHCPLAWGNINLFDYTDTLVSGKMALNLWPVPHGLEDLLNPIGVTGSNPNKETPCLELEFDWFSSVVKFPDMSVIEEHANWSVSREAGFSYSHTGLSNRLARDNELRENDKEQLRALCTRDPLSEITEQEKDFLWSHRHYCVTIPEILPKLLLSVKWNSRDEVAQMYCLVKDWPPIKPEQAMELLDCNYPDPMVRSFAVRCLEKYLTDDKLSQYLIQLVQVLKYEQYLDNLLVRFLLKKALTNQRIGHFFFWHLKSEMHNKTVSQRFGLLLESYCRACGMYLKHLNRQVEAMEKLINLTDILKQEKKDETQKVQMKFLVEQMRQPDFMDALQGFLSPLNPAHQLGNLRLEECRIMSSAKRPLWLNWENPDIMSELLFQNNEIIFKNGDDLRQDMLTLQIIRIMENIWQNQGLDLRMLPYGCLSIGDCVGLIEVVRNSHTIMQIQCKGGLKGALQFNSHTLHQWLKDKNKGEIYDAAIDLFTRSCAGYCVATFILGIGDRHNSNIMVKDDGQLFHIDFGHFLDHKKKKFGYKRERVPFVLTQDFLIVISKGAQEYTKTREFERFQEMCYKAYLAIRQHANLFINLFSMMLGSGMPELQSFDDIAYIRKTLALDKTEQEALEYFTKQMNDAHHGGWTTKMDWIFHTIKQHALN
How it was run: as §1

PIP4K2α(h) = PIP4K2α(h) (Homo sapiens, UniProt P48426)
How it was run: as §1

PIP5K1α(h) = PIP5K1α(h) (Homo sapiens, UniProt Q99755)
How it was run: as §1

PKBα(h) = PKBα(h) (Homo sapiens, UniProt P31749)
How it was run: as §1

PKCθ(h) = PKCθ(h) (Homo sapiens, UniProt Q04759)
PKCθ(h), sequence (Q04759 whole entry): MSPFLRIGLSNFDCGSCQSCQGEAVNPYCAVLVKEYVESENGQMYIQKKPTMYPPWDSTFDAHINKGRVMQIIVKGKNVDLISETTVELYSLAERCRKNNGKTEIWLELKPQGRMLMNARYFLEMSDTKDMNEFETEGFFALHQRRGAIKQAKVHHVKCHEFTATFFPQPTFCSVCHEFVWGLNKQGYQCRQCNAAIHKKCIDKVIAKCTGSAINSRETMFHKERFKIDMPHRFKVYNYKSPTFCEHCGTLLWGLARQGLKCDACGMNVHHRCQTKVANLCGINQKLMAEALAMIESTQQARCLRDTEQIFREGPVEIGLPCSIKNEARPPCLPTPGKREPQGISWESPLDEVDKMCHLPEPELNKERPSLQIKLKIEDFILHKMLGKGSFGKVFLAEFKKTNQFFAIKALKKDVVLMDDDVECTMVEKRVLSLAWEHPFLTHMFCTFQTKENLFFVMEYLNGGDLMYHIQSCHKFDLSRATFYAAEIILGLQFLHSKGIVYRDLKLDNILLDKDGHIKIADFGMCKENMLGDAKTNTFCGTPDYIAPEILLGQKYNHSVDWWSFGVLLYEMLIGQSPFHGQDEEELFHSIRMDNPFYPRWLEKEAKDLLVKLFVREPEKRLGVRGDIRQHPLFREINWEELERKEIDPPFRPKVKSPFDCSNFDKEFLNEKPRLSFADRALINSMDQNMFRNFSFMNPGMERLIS
How it was run: as §1

PRAK(h) = PRAK(h) (Homo sapiens, UniProt Q8IW41)
How it was run: as §1

PrKX(h) = PrKX(h) (Homo sapiens, UniProt P51817)
PrKX(h), sequence (P51817 whole entry): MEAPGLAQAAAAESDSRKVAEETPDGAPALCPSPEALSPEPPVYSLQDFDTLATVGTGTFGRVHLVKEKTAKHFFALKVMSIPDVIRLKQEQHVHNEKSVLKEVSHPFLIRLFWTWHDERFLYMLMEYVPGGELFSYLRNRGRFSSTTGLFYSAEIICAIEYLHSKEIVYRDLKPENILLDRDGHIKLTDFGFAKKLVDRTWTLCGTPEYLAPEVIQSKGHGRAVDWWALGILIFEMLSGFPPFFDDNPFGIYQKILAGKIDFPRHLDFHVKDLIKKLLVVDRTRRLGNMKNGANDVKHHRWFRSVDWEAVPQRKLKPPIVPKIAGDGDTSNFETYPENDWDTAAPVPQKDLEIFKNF
How it was run: as §1

Rsk1(r) = Rsk1(r) (Rattus norvegicus, UniProt Q63531)
How it was run: as §1

SAPK3(h) = SAPK3(h) (Homo sapiens, UniProt P53778)
How it was run: as §1

TBK1(h) = TBK1(h) (Homo sapiens, UniProt Q9UHD2)
How it was run: as §1

TLK2(h) = TLK2(h) (Homo sapiens, UniProt Q86UE8)
TLK2(h), sequence (Q86UE8 whole entry): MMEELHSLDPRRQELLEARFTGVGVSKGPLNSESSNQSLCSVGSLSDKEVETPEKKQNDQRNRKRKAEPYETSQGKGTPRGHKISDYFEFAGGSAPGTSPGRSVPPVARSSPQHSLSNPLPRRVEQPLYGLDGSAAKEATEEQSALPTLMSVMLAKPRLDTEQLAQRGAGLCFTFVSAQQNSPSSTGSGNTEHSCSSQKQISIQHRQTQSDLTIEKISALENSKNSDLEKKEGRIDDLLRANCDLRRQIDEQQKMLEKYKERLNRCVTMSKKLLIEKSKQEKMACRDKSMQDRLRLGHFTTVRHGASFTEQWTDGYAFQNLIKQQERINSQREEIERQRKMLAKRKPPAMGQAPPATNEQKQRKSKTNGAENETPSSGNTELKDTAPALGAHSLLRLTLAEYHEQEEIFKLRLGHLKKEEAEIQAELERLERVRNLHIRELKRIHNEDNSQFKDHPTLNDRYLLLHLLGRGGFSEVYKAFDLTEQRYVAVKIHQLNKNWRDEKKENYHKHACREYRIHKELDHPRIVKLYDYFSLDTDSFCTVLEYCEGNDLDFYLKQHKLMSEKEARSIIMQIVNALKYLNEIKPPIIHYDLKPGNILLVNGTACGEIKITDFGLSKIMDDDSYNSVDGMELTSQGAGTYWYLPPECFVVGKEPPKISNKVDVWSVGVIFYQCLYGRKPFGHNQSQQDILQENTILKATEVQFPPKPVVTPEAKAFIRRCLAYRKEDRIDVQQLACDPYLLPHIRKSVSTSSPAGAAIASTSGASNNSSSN
How it was run: as §1

c-RAF(h) = c-RAF(h) (Homo sapiens, UniProt P04049, Y340D/Y341D)
How it was run: as §1

mTOR/FKBP12(h) = mTOR/FKBP12(h) (Homo sapiens, UniProt P42345)
How it was run: as §1

Structure (SMILES)	inhibition at 0.1 µM (ALK4(h)) [%]	inhibition at 0.1 µM (Blk(m)) [%]	inhibition at 0.1 µM (CDK2/cyclinE(h)) [%]	inhibition at 0.1 µM (CHK2(I157T)(h)) [%]	inhibition at 0.1 µM (CHK2(h)) [%]	inhibition at 0.1 µM (CSK(h)) [%]	inhibition at 0.1 µM (CaMKIδ(h)) [%]	inhibition at 0.1 µM (EGFR(L861Q)(h)) [%]	inhibition at 0.1 µM (EGFR(h)) [%]	inhibition at 0.1 µM (EphA5(h)) [%]	inhibition at 0.1 µM (ErbB4(h)) [%]	inhibition at 0.1 µM (JAK2(h)) [%]	inhibition at 0.1 µM (LIMK1(h)) [%]	inhibition at 0.1 µM (MSK2(h)) [%]	inhibition at 0.1 µM (MuSK(h)) [%]	inhibition at 0.1 µM (NEK11(h)) [%]	inhibition at 0.1 µM (NEK6(h)) [%]	inhibition at 0.1 µM (PAK4(h)) [%]	inhibition at 0.1 µM (PAR-1Bα(h)) [%]	inhibition at 0.1 µM [1] [%]	also measured
Cc1cc2c(F)c(Oc3nc(Nc4cc(C5CC5)[nH]n4)cc(N4CCN(C)CC4)n3)ccc2[nH]1 [Compound 10]	77	84	1	30	11	12	6	2	-8	76	13	92	83	-7	30	-8	-11	29	75	-1	inhibition at 0.1 µM (PIP4K2α(h)): 1%; inhibition at 0.1 µM (PIP5K1α(h)): -2%; inhibition at 0.1 µM (PKBα(h)): -24%; inhibition at 0.1 µM (PKCθ(h)): 21%; inhibition at 0.1 µM (PRAK(h)): -24%; inhibition at 0.1 µM (PrKX(h)): 13%; inhibition at 0.1 µM (Rsk1(r)): 16%; inhibition at 0.1 µM (SAPK3(h)): -4%; inhibition at 0.1 µM (TBK1(h)): 71%; inhibition at 0.1 µM (TLK2(h)): 69%; inhibition at 0.1 µM (c-RAF(h)): 6%; inhibition at 0.1 µM (mTOR/FKBP12(h)): -14%
Cc1cc2c(F)c(Oc3nc(Nc4cc(C5CC5)[nH]n4)cc(N4CCNCC4)n3)ccc2[nH]1 [Compound 11, N-(5-cyclopropyl-1H-pyrazol-3-yl)-2-((4-fluoro-2-methyl-1H-indol-5-yl)oxy)-6-(piperazin-1-yl)pyrimidin-4-amine]	81	93	3	-1	4	5	5	34	-6	81	-5	99	90	-5	20	-6	-11	23	66	2	inhibition at 0.1 µM (PIP4K2α(h)): -4%; inhibition at 0.1 µM (PIP5K1α(h)): -3%; inhibition at 0.1 µM (PKBα(h)): -4%; inhibition at 0.1 µM (PKCθ(h)): -16%; inhibition at 0.1 µM (PRAK(h)): 6%; inhibition at 0.1 µM (PrKX(h)): 35%; inhibition at 0.1 µM (Rsk1(r)): 14%; inhibition at 0.1 µM (SAPK3(h)): -24%; inhibition at 0.1 µM (TBK1(h)): 95%; inhibition at 0.1 µM (TLK2(h)): 70%; inhibition at 0.1 µM (c-RAF(h)): 1%; inhibition at 0.1 µM (mTOR/FKBP12(h)): -9%
